# Source: PubChem BioAssay (NCI)
#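 Interpolation was linear, between the two tested concentrations surrounding the appropriate level; five concentrations were tested over 48 hours in 96-well plates. GI50 marks 50% less growth. TGI denotes the concentration required for complete inhibition of growth.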
# What was measured:
# Assay in all cases: NCI-60 cell line screen, 48 h
# UO-31 renal = tested on: UO-31 renal
# TK-10 renal = tested on: TK-10 renal
# EKVX NSCLC = tested on: EKVX NSCLC
# RXF 393 renal = tested on: RXF 393 renal
# SNB-19 CNS = tested on: SNB-19 CNS
# OVCAR-5 ovarian = tested on: OVCAR-5 ovarian
# SK-MEL-28 melanoma = tested on: SK-MEL-28 melanoma
# UACC-62 melanoma = tested on: UACC-62 melanoma
# HCC-2998 colon = tested on: HCC-2998 colon
# RPMI-8226 leukemia = tested on: RPMI-8226 leukemia
SMILES,TGI (UO-31 renal) [µM],TGI (TK-10 renal) [µM],TGI (EKVX NSCLC) [µM],TGI (RXF 393 renal) [µM],TGI (SNB-19 CNS) [µM],TGI (OVCAR-5 ovarian) [µM],TGI (SK-MEL-28 melanoma) [µM],TGI (UACC-62 melanoma) [µM],TGI (HCC-2998 colon) [µM],TGI (RPMI-8226 leukemia) [µM],GI50 (UO-31 renal) [µM],GI50 (TK-10 renal) [µM],GI50 (EKVX NSCLC) [µM],GI50 (RXF 393 renal) [µM],GI50 (SNB-19 CNS) [µM],GI50 (OVCAR-5 ovarian) [µM],GI50 (SK-MEL-28 melanoma) [µM],GI50 (UACC-62 melanoma) [µM],GI50 (HCC-2998 colon) [µM],GI50 (RPMI-8226 leukemia) [µM]
COc1cnc2cc(C(=O)O)c3c([N+](=O)[O-])cccc3c2c1,> 100,> 100,> 100,> 100,> 100,> 100,> 100,> 100,> 100,> 100,,,,,,,,,,
COC(=O)c1cc2c3ccccc3[nH]c2c2ncccc12,> 100,> 100,> 100,> 100,> 100,> 100,> 100,> 100,> 100,> 100,69.4,12,11.5,> 100,66.5,32.3,85.8,> 100,73.8,56.3
N#CC1(Cc2ccc(N)cc2)c2ccccc2C=CN1C(=O)c1ccccc1 (stereo not drawn),84.2,> 100,> 100,> 100,> 100,> 100,> 100,> 100,> 100,> 100,,,,,,,,,,
N#Cc1ccc(C#Cc2ccccc2C#CCCCCO)cc1,35.3,33.5,35.3,24.4,29.9,28.4,53.7,28.4,33.1,44.1,16.9,16.5,17.9,7.05,15.8,15.1,25.6,15,18.5,20.6
CCCCC(=O)OCC1OC(n2cnc3c(=S)nc[nH]c32)C(OC(=O)CCCC)C1OC(=O)CCCC (stereo not drawn),> 100,> 100,> 100,> 100,> 100,> 100,> 100,> 100,> 36.7,> 100,2.2,0.608,,> 71.4,17.9,3.65,57.4,0.899,0.565,5.81
N#C/C(=C/c1ccsc1)C(=O)c1ccccc1,> 100,> 100,> 100,> 100,> 100,> 100,> 100,> 100,> 100,> 100,,,,,,,,,,
CCCCC/C(C=C(C#N)C#N)=C/c1ccccc1,22.1,42.9,> 55.7,22.3,21.8,10.7,8.57,11.9,9.77,5.78,7.08,6.54,5.98,5.82,6.53,4.11,2.86,2.84,4.69,1.92
CN(C)CCC(=O)N1C/C(=C/c2ccccc2)C(=O)/C(=C\c2ccccc2)C1,5.21,17.9,12.6,4.94,7.62,6.66,5.18,3.77,2.45,0.717,,,,,,,,,,
COc1ccc(OC)c(NC(=O)C(=O)C(C(C)=O)c2nc3ccc(Cl)cc3[nH]c2=O)c1 (stereo not drawn),> 50,> 50,> 50,> 50,> 50,> 50,> 50,> 50,> 50,> 50,,,,,,,,,,
O=C1CNCCCN2CCN(CCCNCC(=O)Nc3ccc(cc3)S(=O)(=O)c3ccc(cc3)NC(=O)CNCCCN3CCN(CCCNCC(=O)Nc4ccc(cc4)S(=O)(=O)c4ccc(cc4)N1)CC3)CC2,> 100,56.5,> 100,> 70.2,> 100,> 77.2,> 56.8,> 67.5,42.7,64,,,,,,,,,,
O=C(N/N=C/c1ccccc1O)c1cccc([N+](=O)[O-])c1,56.5,> 84.6,82.8,> 88.9,> 100,> 100,> 100,> 70.8,> 100,> 100,,,,,,,,,,
Clc1ccc(C2N3CCCCC3[C@@H]3c4[nH]c5ccccc5c4CCN23)cc1 (stereo partly drawn),> 100,> 100,> 100,78.7,> 100,> 100,> 100,> 100,> 100,> 100,,,,,,,,,,
CCNCCNc1cc(-c2ccc(C(=O)OC)cc2)c(C#N)c2nc3ccccc3n12,2.95,4.44,> 100,2.85,> 100,> 100,3.45,4.74,> 100,5.3,1.53,1.91,4.07,1.42,4.57,3.08,1.72,2.26,2.3,1.99
CCCCN(CCCC)C(=O)C(=O)C(C#N)c1ccc(C)cc1 (stereo not drawn),> 100,> 100,> 100,> 100,> 100,> 100,> 100,> 100,> 100,> 100,,,,,,,,,,
CC1=C(CCCNS(C)(=O)=O)C2=C(C)C3(CC3)[C@@](C)(O)C(=O)C2=C1,2.3,8.52,7.72,0.419,> 100,7.62,4.75,3.45,4.51,> 100,0.5,2.61,2.31,0.199,1.93,0.654,1.94,1.47,1.52,> 64.5
O=C1OCc2c1cc1ccc(O)c(OC3OC(CO)C(O)C(O)C3O)c1c2-c1ccc2c(c1)OCO2 (stereo not drawn),> 100,> 100,> 100,> 100,> 100,> 100,> 100,> 100,> 100,> 100,27.2,,,,36,,,,38.2,34.6
